According to ChEMBL document CHEMBL1154659, “Discovery and optimization of chromenotriazolopyrimidines as potent inhibitors of the mouse double minute 2-tumor protein 53 protein-protein interaction” (J Med Chem, 2009):
Calls of active or inactive are those of the source. The rule behind the calls is not given here.

Experiments:
HCT-116 [1] = assay: Induction of p21 mRNA in human HCT116 cells by RT-PCR; assay type: functional, cell-based
HCT-116 [2] = assay: Inhibition of human p21 deficient HCT116 cell proliferation after 16 hrs by BrdU assay; assay type: functional, cell-based
HCT-116 [3] = assay: Inhibition of human HCT116 cell proliferation after 16 hrs by BrdU assay; assay type: functional, cell-based
HCT-116 [4] = assay: Inhibition of human p53 deficient HCT116 cell proliferation after 16 hrs by BrdU assay; assay type: functional, cell-based
SJSA-1 = assay: Induction of apoptosis in human SJSA1 cells assessed as caspase 3/7 activity after 48 hrs; assay type: functional, cell-based
[5] = molecular target: Tumour suppressor p53/oncoprotein Mdm2 (Homo sapiens, UniProt Q00987); assay: Inhibition of human MDM2/P53 interaction by HTRF assay; assay type: protein assay
Chain of Tumour suppressor p53/oncoprotein Mdm2 (P04637 whole entry): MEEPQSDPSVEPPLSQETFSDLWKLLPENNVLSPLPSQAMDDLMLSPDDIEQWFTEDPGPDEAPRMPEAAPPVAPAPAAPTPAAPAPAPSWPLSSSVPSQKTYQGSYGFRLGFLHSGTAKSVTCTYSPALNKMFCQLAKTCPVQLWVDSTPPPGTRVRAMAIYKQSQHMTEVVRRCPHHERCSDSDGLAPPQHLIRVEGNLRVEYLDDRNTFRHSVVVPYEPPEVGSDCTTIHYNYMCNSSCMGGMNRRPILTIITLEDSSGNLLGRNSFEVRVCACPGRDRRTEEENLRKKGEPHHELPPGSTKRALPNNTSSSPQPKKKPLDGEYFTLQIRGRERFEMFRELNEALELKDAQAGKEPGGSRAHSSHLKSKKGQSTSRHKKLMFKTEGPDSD
Chain of Tumour suppressor p53/oncoprotein Mdm2 (Q00987 whole entry): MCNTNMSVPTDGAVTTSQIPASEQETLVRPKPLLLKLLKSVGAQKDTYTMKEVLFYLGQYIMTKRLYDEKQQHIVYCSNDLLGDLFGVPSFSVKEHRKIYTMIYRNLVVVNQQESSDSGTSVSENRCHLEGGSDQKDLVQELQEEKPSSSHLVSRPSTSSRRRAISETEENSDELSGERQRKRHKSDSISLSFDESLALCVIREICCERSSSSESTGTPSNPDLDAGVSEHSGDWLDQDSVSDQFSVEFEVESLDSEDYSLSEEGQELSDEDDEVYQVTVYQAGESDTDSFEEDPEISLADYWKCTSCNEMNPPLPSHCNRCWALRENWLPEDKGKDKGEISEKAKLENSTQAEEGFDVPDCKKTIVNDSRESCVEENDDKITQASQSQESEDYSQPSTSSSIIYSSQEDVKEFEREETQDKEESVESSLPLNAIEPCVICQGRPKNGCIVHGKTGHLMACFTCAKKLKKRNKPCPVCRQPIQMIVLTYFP

Structure (SMILES)	IC50 [5] [nM]	also measured
COc1ccc(C2=N[C@@H](c3ccc(Cl)cc3)[C@@H](c3ccc(Cl)cc3)N2C(=O)N2CCNC(=O)C2)c(OC(C)C)c1	–	Activity (HCT-116 [1]): Dose-dependent effect; Activity (HCT-116 [2]): inactive; Activity (HCT-116 [3]): Active; Activity (HCT-116 [4]): inactive; Activity (SJSA-1): Dose-dependent effect
CN1C2=C(C(c3ccc(Br)cc3)Oc3cccc(F)c32)C(c2ccc(Br)cc2)n2ncnc21 (racemic)	1720	–
CN1C2=C(C(c3ccc(Br)cc3)Oc3ccccc32)C(c2ccc(F)cc2)n2ncnc21 (racemic)	1880	–
CN1C2=C(C(c3ccc(Br)cc3)Oc3ccc(C#N)cc32)C(c2ccc(Br)cc2)n2ncnc21 (racemic)	3060	–
CN1C2=C(C(c3ccc(C#N)cc3)Oc3ccccc32)C(c2ccc(Br)cc2)n2ncnc21 (racemic)	2080	–
CN1C2=C(C(c3ccc(Br)cc3)Oc3ccc(F)cc32)C(c2ccc(Br)cc2)n2ncnc21 (racemic)	1730	–
CN1C2=C(C(c3ccc(Br)cc3)Oc3c(Cl)cccc32)C(c2ccc(Br)cc2)n2ncnc21 (racemic)	3500	–
CN1C2=C(C(c3ccc(Cl)cc3)Oc3ccccc32)C(c2ccc(Br)cc2)n2ncnc21 (racemic)	890	–
CN1C2=C(C(c3ccc(Br)cc3)Oc3ccccc32)C(c2ccc(C#N)cc2)n2ncnc21 (racemic)	5840	–
CN1C2=C(C(c3ccc(Br)cc3)Oc3c(Cl)cc(Cl)cc32)C(c2ccc(Br)cc2)n2ncnc21 (racemic)	> 100000	–
Cc1ccc2c(c1)C1=C(C(c3ccc(Br)cc3)O2)C(c2ccc(Br)cc2)n2ncnc2N1C (racemic)	440	–
CCOc1cccc2c1C1=C(C(c3ccc(Br)cc3)O2)C(c2ccc(Br)cc2)n2ncnc2N1C (racemic)	910	–
CN1C2=C(C(c3ccc(F)cc3)Oc3ccccc32)C(c2ccc(F)cc2)n2ncnc21 (racemic)	14800	–
CN1C2=C(C(c3ccc(Cl)cc3)Oc3ccccc32)C(c2ccc(Cl)cc2)n2ncnc21 (racemic)	1210	–
Cc1cc2c(cc1F)OC(c1ccc(Br)cc1)C1=C2N(C)c2ncnn2C1c1ccc(Br)cc1 (racemic)	480	–
CCc1ccc(C2Oc3ccccc3C3=C2C(c2ccc(Br)cc2)n2ncnc2N3C)cc1 (racemic)	> 100000	–
Cc1ccc2c(c1)C1=C(C(c3ccc(Br)cc3)O2)C(c2ccc(Br)cc2)n2ncnc2N1C (single isomer, unassigned)	–	Activity (HCT-116 [1]): Dose-dependent effect; Activity (HCT-116 [2]): inactive; Activity (HCT-116 [3]): Active; Activity (HCT-116 [4]): inactive; Activity (SJSA-1): Dose-dependent effect

Now from value to compound, other results behind:

IC50 [5] [nM]	Structure (SMILES)	also measured
3940	COc1c(C)ccc2c1C1=C(C(c3ccc(Br)cc3)O2)C(c2ccc(Br)cc2)n2ncnc2N1C (racemic)	–
1400	CN1C2=C(C(c3ccc(Br)cc3)Oc3ccc(Cl)cc32)C(c2ccc(Br)cc2)n2ncnc21 (racemic)	–
990	CN1C2=C(C(c3ccc(Br)cc3)Oc3cc(F)ccc32)C(c2ccc(Br)cc2)n2ncnc21 (racemic)	–
6570	CN1C2=C(C(c3ccc(F)cc3)Oc3ccccc32)C(c2ccc(Br)cc2)n2ncnc21 (racemic)	–
3200	CCc1ccc2c(c1)C1=C(C(c3ccc(Br)cc3)O2)C(c2ccc(Br)cc2)n2ncnc2N1C (racemic)	–
4740	Cc1ccc(C2C3=C(c4ccccc4OC3c3ccc(Br)cc3)N(C)c3ncnn32)cc1 (racemic)	–
9070	CC#Cc1ccc(C2Oc3ccccc3C3=C2C(c2ccc(Br)cc2)n2ncnc2N3C)cc1 (racemic)	–
4630	Cc1ccc(C2Oc3ccccc3C3=C2C(c2ccc(Br)cc2)n2ncnc2N3C)cc1 (racemic)	–
15100	CN1C2=C(C(c3ccc(Br)cc3)Oc3cc(Cl)ccc32)C(c2ccc(Br)cc2)n2ncnc21 (racemic)	–
2470	C#Cc1ccc(C2Oc3ccccc3C3=C2C(c2ccc(Br)cc2)n2ncnc2N3C)cc1 (racemic)	–
